Patent US9957251B2 (Takeda Pharmaceutical Company Limited, priority 2014, dated 2018)

What was measured:
[1] = test system: human multiple myeloma RPMI8226 cells; assay: Inhibitory activity against human multiple myeloma RPMI8226 cell growth (CellTiter-Glo); type: cell-based; settings: 1 μM of the test compound, cultured for 8 days; for inhibition at 1 µM: Homo sapiens, RPMI-8226, 192 h, read-out: Percent inhibition of RPMI8226 cell growth (%); for Percent inhibition of RPMI8226 cell growth (%): 1 µM
Method in brief: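 RPMI8226 cells (300/well) cultured 1 day at 37 °C, 5% CO2, then given compound at 1 μM for 8 days. ATP luminescence (CellTiter-Glo) read; percent inhibition relative to 0.1% DMSO wells.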

[2] = test system: SW480 human colorectal cancer cells; assay: Antitumor efficacy in mice bearing SW480 human colorectal cancer xenograft; type: in vivo, BALB/c female nude mice; settings: Mus musculus, SW480, 336 h, oral, 1 dose per day, 14 days, percent tumor growth relative to control group, read-out: T/C (%)
Procedure: The compound of the present invention was evaluated for its antitumor efficacy in mice bearing cancer derived from SW480 human colorectal cancer cells by the following method.
SW480 human colorectal cancer cells were transplanted into 6- to 7-week-old BALB/c female nude mice (CLEA Japan) by subcutaneous injection of 2.0×10^6 cells per mouse. At 7 to 14 days after the transplantation, the size of the engrafted tumor was measured, and the tumor volume was calculated according to the following formula. Tumor volume=major axis×minor axis×minor axis×(½)
Test subjects having an engrafted tumor with a tumor volume of approximately 100 mm^3 were selected and used in the experiment (6 subjects per group). A suspension of each test compound in a 0.5% methylcellulose solution (Wako Pure Chemical Industries) was orally administered to the mice for 14 days at the dose (mg/kg body weight, indicating the amount per dose) and the number of doses shown in Table 4. On the day before the start of the administration and the day before the completion of the administration, the tumor size was measured, and the tumor volume was calculated.
Percent tumor growth (T/C (%)) of the test compound administration group relative to the control administration group was calculated according to the following formula. T/C(%)=(tumor volume of the test compound administration group after the completion of the administration−tumor volume of the test compound administration group at the day before the start of the administration)/(tumor volume of the control administration group after the completion of the administration−tumor volume of the control administration group at the day before the start of the administration))×100

CDK19 (CDC2L6/CycC) = target: T1, CDK19 (CDC2L6/CycC) (Homo sapiens, UniProt Q9BWU1); assay: CDK19 inhibitory activity (TR-FRET, Kinase Tracer-236 displacement); type: binding; settings: 1 μM of the test compound; for inhibition at 1 µM: read-out: Percent inhibition of CDK19 activity (%); for Percent inhibition of CDK19 activity (%): 1 µM
T1 construct: purchased Carna Biosciences
T1 sequence (Q9BWU1 whole entry): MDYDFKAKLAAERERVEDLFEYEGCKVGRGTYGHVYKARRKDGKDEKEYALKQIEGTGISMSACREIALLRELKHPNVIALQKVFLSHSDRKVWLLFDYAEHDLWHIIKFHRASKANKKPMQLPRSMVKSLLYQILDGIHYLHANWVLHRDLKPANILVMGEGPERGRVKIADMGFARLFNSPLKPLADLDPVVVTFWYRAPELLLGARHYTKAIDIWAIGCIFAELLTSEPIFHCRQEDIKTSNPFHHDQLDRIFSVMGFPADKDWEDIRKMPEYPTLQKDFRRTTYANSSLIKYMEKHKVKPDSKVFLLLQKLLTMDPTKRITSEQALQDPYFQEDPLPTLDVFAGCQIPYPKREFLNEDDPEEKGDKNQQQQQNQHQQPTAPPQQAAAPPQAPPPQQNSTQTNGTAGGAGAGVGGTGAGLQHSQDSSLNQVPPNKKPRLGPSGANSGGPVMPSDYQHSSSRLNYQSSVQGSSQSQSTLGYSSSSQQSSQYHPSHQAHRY
T1 sequence (P24863 whole entry partner): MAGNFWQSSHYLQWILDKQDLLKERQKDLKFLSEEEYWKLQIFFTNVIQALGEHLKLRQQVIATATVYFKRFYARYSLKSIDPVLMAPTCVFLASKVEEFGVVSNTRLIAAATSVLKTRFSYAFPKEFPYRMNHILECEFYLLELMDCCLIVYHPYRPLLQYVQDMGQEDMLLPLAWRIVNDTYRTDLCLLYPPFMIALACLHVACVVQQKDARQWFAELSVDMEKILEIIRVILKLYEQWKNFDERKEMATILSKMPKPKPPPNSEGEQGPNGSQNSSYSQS
Method in brief: (§1)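 Binding assay measuring displacement of Kinase Tracer-236 (60 nM in the added mix) by compound, using Eu-cryptate anti-GST antibody with CDK8/CycC (84 ng/mL) or CDC2L6/CycC (87 ng/mL) solutions. After 1 h at room temperature, TR-FRET read at 615 and 665 nm (excitation 320 nm).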

CDK8/CycC = target: T2, CDK8/CycC (Homo sapiens, UniProt P49336); assay: CDK8 inhibitory activity (TR-FRET, Kinase Tracer-236 displacement); type: binding; settings: 1 μM of the test compound; for inhibition at 1 µM: read-out: Percent inhibition of CDK8 activity (%); for Percent inhibition of CDK8 activity (%): 1 µM
T2 construct: purchased Carna Biosciences
T2 sequence (P49336 whole entry): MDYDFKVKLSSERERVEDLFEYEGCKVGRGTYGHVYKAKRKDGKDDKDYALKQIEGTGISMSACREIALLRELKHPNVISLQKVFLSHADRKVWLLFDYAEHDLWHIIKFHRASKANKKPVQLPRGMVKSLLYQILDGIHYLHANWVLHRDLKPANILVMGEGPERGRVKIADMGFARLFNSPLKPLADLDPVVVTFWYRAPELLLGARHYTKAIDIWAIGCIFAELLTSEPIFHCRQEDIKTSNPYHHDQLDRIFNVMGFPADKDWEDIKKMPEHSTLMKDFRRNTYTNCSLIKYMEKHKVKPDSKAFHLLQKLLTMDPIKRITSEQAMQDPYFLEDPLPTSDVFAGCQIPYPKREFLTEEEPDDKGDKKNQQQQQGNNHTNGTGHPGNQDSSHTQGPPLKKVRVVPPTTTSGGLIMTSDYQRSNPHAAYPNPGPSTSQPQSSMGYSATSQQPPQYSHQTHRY
T2 sequence (P24863 whole entry partner): as the sequence (P24863 whole entry partner) above
Method in brief: as §1

O=C(/C=C/c1cnccc1-c1cnn(C2CC2)c1)Nc1ccc(CN2CCOCC2)cc1 [Example 97, (2E)-3-(4-(1-Cyclopropyl-1H-pyrazol-4-yl)pyridin-3-yl)-N-(4-(morpholin-4-ylmethyl)phenyl)acrylamide]
inhibition at 1 µM [1]: 53%
response vs control in vivo at 50 mg/kg [2]: 37%
inhibition at 1 µM (CDK19 (CDC2L6/CycC)): 102%
inhibition at 1 µM (CDK8/CycC): 92%

O=C(/C=C/c1cnccc1-c1cnn(C2CC2)c1)Nc1ccc(CN2CCOCC2)cc1F [Example 194, (2E)-3-(4-(1-Cyclopropyl-1H-pyrazol-4-yl)pyridin-3-yl)-N-(2-fluoro-4-(morpholin-4-ylmethyl)phenyl)acrylamide]
inhibition at 1 µM [1]: 53%
response vs control in vivo at 50 mg/kg [2]: 36%
inhibition at 1 µM (CDK19 (CDC2L6/CycC)): 99%
inhibition at 1 µM (CDK8/CycC): 99%

Cn1cc(-c2ccncc2/C=C/C(=O)Nc2ccc3c(c2)CN(CC(F)(F)F)CC3)cn1 [Example 216, (2E)-3-(4-(1-Methyl-1H-pyrazol-4-yl)pyridin-3-yl)-N-(2-(2,2,2-trifluoroethyl)-1,2,3,4-tetrahydroisoquinolin-7-yl)acrylamide]
inhibition at 1 µM [1]: 59%
response vs control in vivo at 50 mg/kg [2]: 43%
inhibition at 1 µM (CDK19 (CDC2L6/CycC)): 100%
inhibition at 1 µM (CDK8/CycC): 102%

O=C(/C=C/c1cncc(F)c1-c1cnn(C2CC2)c1)Nc1ccc(CN2CCOCC2)cc1F [Example 273, (2E)-3-(4-(1-Cyclopropyl-1H-pyrazol-4-yl)-5-fluoropyridin-3-yl)-N-(2-fluoro-4-(morpholin-4-ylmethyl)phenyl)acrylamide]
inhibition at 1 µM [1]: 64%
response vs control in vivo at 50 mg/kg [2]: 36%
inhibition at 1 µM (CDK19 (CDC2L6/CycC)): 96%
inhibition at 1 µM (CDK8/CycC): 101%

Cn1cc(-c2ccncc2/C=C/C(=O)Nc2ccc3c(c2)CN(CC(F)(F)F)C3)cn1 [Example 289, (2E)-3-(4-(1-Methyl-1H-pyrazol-4-yl)pyridin-3-yl)-N-(2-(2,2,2-trifluoroethyl)-2,3-dihydro-1H-isoindol-5-yl)acrylamide]
inhibition at 1 µM [1]: 64%
response vs control in vivo at 50 mg/kg [2]: 31%
inhibition at 1 µM (CDK19 (CDC2L6/CycC)): 102%
inhibition at 1 µM (CDK8/CycC): 98%

O=C(/C=C/c1cnccc1-c1cnn(C2CC2)c1)Nc1ccc(CN2CC(F)(F)C2)cc1 [Example 309, (2E)-3-(4-(1-Cyclopropyl-1H-pyrazol-4-yl)pyridin-3-yl)-N-(4-((3,3-difluoroazetidin-1-yl)methyl)phenyl)acrylamide]
inhibition at 1 µM [1]: 58%
response vs control in vivo at 30 mg/kg [2]: 51%
inhibition at 1 µM (CDK19 (CDC2L6/CycC)): 101%
inhibition at 1 µM (CDK8/CycC): 105%

O=C(/C=C/c1cncc(F)c1-c1cnn(C2CC2)c1)Nc1ccc2c(c1)CN(CC(F)(F)F)C2 [Example 324, (2E)-3-(4-(1-Cyclopropyl-1H-pyrazol-4-yl)-5-fluoropyridin-3-yl)-N-(2-(2,2,2-trifluoroethyl)-2,3-dihydro-1H-isoindol-5-yl)acrylamide]
inhibition at 1 µM [1]: 58%
response vs control in vivo at 30 mg/kg [2]: 29%
inhibition at 1 µM (CDK19 (CDC2L6/CycC)): 100%
inhibition at 1 µM (CDK8/CycC): 104%

Cn1cc(-c2c(F)cncc2/C=C/C(=O)Nc2ccc(CN3CC(F)(F)C3)cc2)cn1 [Example 359, (2E)-N-(4-((3,3-Difluoroazetidin-1-yl)methyl)phenyl)-3-(5-fluoro-4-(1-methyl-1H-pyrazol-4-yl)pyridin-3-yl)acrylamide]
inhibition at 1 µM [1]: 65%
response vs control in vivo at 30 mg/kg [2]: 36%
inhibition at 1 µM (CDK19 (CDC2L6/CycC)): 102%
inhibition at 1 µM (CDK8/CycC): 103%

O=C(/C=C/c1cnccc1-c1cnn(C2CC2)c1)Nc1ccc(CN2CC(F)(F)C2)cc1 [Example 374, (2E)-3-(4-(1-Cyclopropyl-1H-pyrazol-4-yl)pyridin-3-yl)-N-(4-((3,3-difluoroazetidin-1-yl)methyl)phenyl)acrylamide diphosphate]
Percent inhibition of RPMI8226 cell growth (%) [1]: 69%
Percent inhibition of CDK19 activity (%) (CDK19 (CDC2L6/CycC)): 100%
Percent inhibition of CDK8 activity (%) (CDK8/CycC): 100%

O=C(/C=C/c1cnccc1-c1cnn(C2CC2)c1)Nc1ccc(CN2CC(F)(F)C2)cc1 [Example 375, (2E)-3-(4-(1-Cyclopropyl-1H-pyrazol-4-yl)pyridin-3-yl)-N-(4-((3,3-difluoroazetidin-1-yl)methyl)phenyl)acrylamide methanesulfonate]
Percent inhibition of RPMI8226 cell growth (%) ([1]; methanesulfonate): 70%
Percent inhibition of CDK19 activity (%) (CDK19 (CDC2L6/CycC); methanesulfonate): 101%
Percent inhibition of CDK8 activity (%) (CDK8/CycC; methanesulfonate): 102%

O=C(/C=C/c1cnccc1-c1cnn(C2CC2)c1)Nc1ccc(CN2CC(F)(F)C2)cc1 [Example 376, (2E)-3-(4-(1-Cyclopropyl-1H-pyrazol-4-yl)pyridin-3-yl)-N-(4-((3,3-difluoroazetidin-1-yl)methyl)phenyl)acrylamide hemifumarate]
Percent inhibition of RPMI8226 cell growth (%) [1]: 70%
Percent inhibition of CDK19 activity (%) (CDK19 (CDC2L6/CycC)): 100%
Percent inhibition of CDK8 activity (%) (CDK8/CycC): 99%

O=C(/C=C/c1cnccc1-c1cnn(C2CC2)c1)Nc1ccc(CN2CC(F)(F)C2)cc1 [Example 377, (2E)-3-(4-(1-Cyclopropyl-1H-pyrazol-4-yl)pyridin-3-yl)-N-(4-((3,3-difluoroazetidin-1-yl)methyl)phenyl)acrylamide hemisuccinate]
Percent inhibition of RPMI8226 cell growth (%) [1]: 66%
Percent inhibition of CDK19 activity (%) (CDK19 (CDC2L6/CycC)): 100%
Percent inhibition of CDK8 activity (%) (CDK8/CycC): 102%
